Values joined by “and” are separate entries in the source; they are usually repeats but may differ in a detail not shown here. Equal values may be shown once. Toxic doses and inconclusive results are not listed. The calls were made as follows: active = survival T/C of 150% or more; inactive = T/C below 125% in these data.
Test system: CD2F1 mice, L1210 leukemia ip, survival T/C
Test: NCI In Vivo Anticancer Drug Screen. Data for tumor model L1210 Leukemia (intraperitoneal) in CD2F1 (CDF1) mice
Settings: endpoint: mean survival time, higher = longer survival
How it was run: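 Transplantable tumor in mice; compound-treated vs vehicle-treated groups. Read-out = treated/control ratio of the measured endpoint.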

[1] = dose: 100.0 mg/kg/injection, schedule: Q01DX009 (ip), vehicle: saline with Tween-80
[2] = dose: 200.0 mg/kg/injection, schedule: Q01DX009 (ip), vehicle: saline with Tween-80
[3] = dose: 25.0 mg/kg/injection, schedule: Q01DX009 (ip), vehicle: water
[4] = dose: 50.0 mg/kg/injection, schedule: Q01DX009 (ip), vehicle: water
[5] = dose: 100.0 mg/kg/injection, schedule: Q01DX009 (ip), vehicle: water
[6] = dose: 100.0 mg/kg/injection, schedule: Q01DX009 (ip), vehicle: Klucel (hydroxypropylcellulose) (HPC)
[7] = dose: 200.0 mg/kg/injection, schedule: Q01DX009 (ip), vehicle: Klucel (hydroxypropylcellulose) (HPC)
[8] = dose: 100.0 mg/kg/injection, schedule: Q01DX001 (ip), vehicle: saline with Tween-80
[9] = dose: 200.0 mg/kg/injection, schedule: Q01DX001 (ip), vehicle: saline with Tween-80
[10] = dose: 400.0 mg/kg/injection, schedule: Q01DX001 (ip), vehicle: saline with Tween-80
[11] = dose: 25.0 mg/kg/injection, schedule: Q01DX009 (ip), vehicle: saline with Tween-80
[12] = dose: 25.0 mg/kg/injection, schedule: Q04DX003 (ip), vehicle: saline with Tween-80
[13] = dose: 100.0 mg/kg/injection, schedule: Q04DX002 (ip), vehicle: saline with Tween-80
[14] = dose: 6.25 mg/kg/injection, schedule: Q01DX009 (ip), vehicle: Klucel (hydroxypropylcellulose) (HPC)
[15] = dose: 12.5 mg/kg/injection, schedule: Q01DX009 (ip), vehicle: Klucel (hydroxypropylcellulose) (HPC)
[16] = dose: 25.0 mg/kg/injection, schedule: Q01DX009 (ip), vehicle: Klucel (hydroxypropylcellulose) (HPC)
[17] = dose: 50.0 mg/kg/injection, schedule: Q01DX009 (ip), vehicle: Klucel (hydroxypropylcellulose) (HPC)

Measured: T/C

O=C1CC(=Nc2ccccc2)CC(=O)N1
inactive: dose: 12.5 mg/kg/injection, schedule: Q01DX009 (ip), vehicle: other 102 % of control | dose: 25.0 mg/kg/injection, schedule: Q01DX009 (ip), vehicle: other 105 % of control | dose: 50.0 mg/kg/injection, schedule: Q01DX009 (ip), vehicle: other 91 % of control | dose: 100.0 mg/kg/injection, schedule: Q01DX009 (ip), vehicle: other 89 % of control | dose: 200.0 mg/kg/injection, schedule: Q01DX009 (ip), vehicle: other 89 % of control

Cn1cnc(=S)c2ccccc21
inactive: dose: 25.0 mg/kg/injection, schedule: Q04DX003 (ip), vehicle: Klucel (hydroxypropylcellulose) (HPC) 104 % of control | dose: 50.0 mg/kg/injection, schedule: Q04DX003 (ip), vehicle: Klucel (hydroxypropylcellulose) (HPC) 93 % of control

O=C(Nc1cccc([N+](=O)[O-])c1)c1ccc(Cl)cc1Cl
inactive: [1] 90 % of control | [2] 92 % of control | dose: 400.0 mg/kg/injection, schedule: Q01DX009 (ip), vehicle: saline with Tween-80 90 % of control

CNNCc1c[nH]c(=O)[nH]c1=O
inactive: [3] 110 % of control | [4] 102 % of control | [5] 102 % of control | dose: 200.0 mg/kg/injection, schedule: Q01DX009 (ip), vehicle: water 93 % of control | dose: 400.0 mg/kg/injection, schedule: Q01DX009 (ip), vehicle: water 100 % of control

Cc1ccc(S(=O)(=O)N2CCC(=O)c3ccc(Cl)cc32)cc1
inactive: [6] 101 % of control | [7] 93 % of control | dose: 400.0 mg/kg/injection, schedule: Q01DX009 (ip), vehicle: Klucel (hydroxypropylcellulose) (HPC) 96 % of control

CC(C)(C)NC(=O)Nc1ccc(Cl)c(Cl)c1
inactive: [8] 93 % of control | [9] 88 % of control | [10] 93 % of control

O=C(CCl)Nc1ccc(-c2c(NC(=O)CCl)ncc3ccccc23)cc1
inactive: dose: 18.75 mg/kg/injection, schedule: Q04DX003 (ip), vehicle: other 100 % of control | dose: 37.5 mg/kg/injection, schedule: Q04DX003 (ip), vehicle: other 108 % of control | dose: 75.0 mg/kg/injection, schedule: Q04DX003 (ip), vehicle: other 108 % of control | dose: 150.0 mg/kg/injection, schedule: Q04DX003 (ip), vehicle: other 108 % of control

NC1=C(Br)C(=O)C(=O)c2ccccc21
inactive: [8] 101 % of control | [9] 101 % of control | [10] 97 % of control

C(N=Nc1ccccc1)=C(c1ccccc1)c1ccccc1
inactive: dose: 100.0 mg/kg/injection, schedule: Q04DX002 (ip), vehicle: other 107 % of control | dose: 200.0 mg/kg/injection, schedule: Q04DX002 (ip), vehicle: other 103 % of control | dose: 400.0 mg/kg/injection, schedule: Q04DX002 (ip), vehicle: other 103 % of control

CCOC(=O)Nc1cc(=O)c([N+](=O)[O-])c(NC(=O)OCC)[nH]1
inactive: dose: 75.0 mg/kg/injection, schedule: Q04DX003 (ip), vehicle: saline 92 % of control | dose: 150.0 mg/kg/injection, schedule: Q04DX003 (ip), vehicle: saline 97 % of control | dose: 300.0 mg/kg/injection, schedule: Q04DX003 (ip), vehicle: saline 101 % of control

O=C1OC(=O)C2=C1C1C3C=CCC3C2N2C=CC=CC12 (stereo not given)
inactive: dose: 100.0 mg/kg/injection, schedule: Q01DX001 (ip), vehicle: Klucel (hydroxypropylcellulose) (HPC) 105 % of control | dose: 200.0 mg/kg/injection, schedule: Q01DX001 (ip), vehicle: Klucel (hydroxypropylcellulose) (HPC) 93 % of control

c1ccc2c(c1)nnn1c3cnccc3nc21
inactive: dose: 1.56 mg/kg/injection, schedule: Q01DX009 (ip), vehicle: saline with Tween-80 101 % of control and 105 % of control | dose: 3.12 mg/kg/injection, schedule: Q01DX009 (ip), vehicle: saline with Tween-80 94 % of control and 100 % of control | dose: 5.0 mg/kg/injection, schedule: Q01DX001 (ip), vehicle: saline 98 % of control | dose: 6.25 mg/kg/injection, schedule: Q01DX009 (ip), vehicle: saline with Tween-80 97 % of control and 103 % of control | dose: 10.0 mg/kg/injection, schedule: Q01DX001 (ip), vehicle: saline 101 % of control | dose: 12.5 mg/kg/injection, schedule: Q01DX009 (ip), vehicle: saline with Tween-80 101 % of control | dose: 20.0 mg/kg/injection, schedule: Q01DX001 (ip), vehicle: saline 98 % of control | [11] 103 % of control

CC#CC(=O)SCCNC(=O)CC(C)(C)C
inactive: [11] 96 % of control | [12] 105 % of control | dose: 50.0 mg/kg/injection, schedule: Q01DX009 (ip), vehicle: saline with Tween-80 96 % of control | dose: 50.0 mg/kg/injection, schedule: Q04DX003 (ip), vehicle: saline with Tween-80 96 % of control | [1] 95 % of control | dose: 100.0 mg/kg/injection, schedule: Q04DX003 (ip), vehicle: saline with Tween-80 106 % of control | [2] 97 % of control | dose: 200.0 mg/kg/injection, schedule: Q04DX003 (ip), vehicle: saline with Tween-80 98 % of control

Nc1ccc(N(c2ccccc2)c2ccccc2)cc1
inactive: dose: 100.0 mg/kg/injection, schedule: Q04DX002 (ip), vehicle: Klucel (hydroxypropylcellulose) (HPC) 97 % of control | dose: 200.0 mg/kg/injection, schedule: Q04DX002 (ip), vehicle: Klucel (hydroxypropylcellulose) (HPC) 86 % of control | dose: 400.0 mg/kg/injection, schedule: Q04DX002 (ip), vehicle: Klucel (hydroxypropylcellulose) (HPC) 89 % of control

COc1ccc(NC(=O)Nc2ccccc2C)c(Cl)c1
inactive: dose: 25.0 mg/kg/injection, schedule: Q04DX002 (ip), vehicle: saline with Tween-80 94 % of control | dose: 50.0 mg/kg/injection, schedule: Q04DX002 (ip), vehicle: saline with Tween-80 98 % of control | [13] 86 % of control and 90 % of control | dose: 400.0 mg/kg/injection, schedule: Q04DX002 (ip), vehicle: saline with Tween-80 86 % of control

COC(=O)C1c2cc3c(c(O)c2CCC1(C)O)C(=O)c1c(O)cc2c(c1C3=O)OC1OC2(C)C(O)C(N(C)C)C1O (stereo not given)
inactive: dose: 100.0 mg/kg/injection, schedule: Q01DX001 (ip), vehicle: saline 103 % of control | dose: 200.0 mg/kg/injection, schedule: Q01DX001 (ip), vehicle: saline 104 % of control | dose: 400.0 mg/kg/injection, schedule: Q01DX001 (ip), vehicle: saline 104 % of control

O=C1C=CC(=O)N1c1ccc(Cl)cc1Cl
inactive: dose: 12.5 mg/kg/injection, schedule: Q04DX003 (ip), vehicle: saline with Tween-80 103 % of control | [12] 100 % of control

NNC(=O)OCc1ccccc1
inactive: [13] 100 % of control

CN(C)N=Nc1ccccc1C(=O)NNC(=O)CC#N
inactive: dose: 18.75 mg/kg/injection, schedule: Q01DX009 (ip), vehicle: Klucel (hydroxypropylcellulose) (HPC) 88 % of control and 97 % of control | dose: 37.5 mg/kg/injection, schedule: Q01DX009 (ip), vehicle: Klucel (hydroxypropylcellulose) (HPC) 92 % of control and 100 % of control | dose: 75.0 mg/kg/injection, schedule: Q01DX009 (ip), vehicle: Klucel (hydroxypropylcellulose) (HPC) 93 % of control and 111 % of control | dose: 150.0 mg/kg/injection, schedule: Q01DX009 (ip), vehicle: Klucel (hydroxypropylcellulose) (HPC) 113 % of control and 102 % of control | dose: 300.0 mg/kg/injection, schedule: Q01DX009 (ip), vehicle: Klucel (hydroxypropylcellulose) (HPC) 120 % of control and 111 % of control

O=C(C#Cc1ccccc1)c1ccccc1
inactive: dose: 3.12 mg/kg/injection, schedule: Q01DX009 (ip), vehicle: Klucel (hydroxypropylcellulose) (HPC) 86 % of control and 98 % of control | [14] 92 % of control and 97 % of control | [15] 92 % of control and 104 % of control | [16] 86 % of control and 107 % of control | [17] 89 % of control

CC(=O)[O][Pb]([O]C(C)=O)([c]1ccccc1)[c]1ccccc1
inactive: [14] 89 % of control and 97 % of control | [15] 87 % of control and 100 % of control | [16] 96 % of control | [17] 90 % of control and 95 % of control | [6] 92 % of control and 97 % of control | [7] 96 % of control

CCCCCCCCCCCC(=O)OCC1OC2C(Oc3nc(=N)ccn32)C1OC(=O)CCCCCCCCCCC (stereo not given)
active: dose: 12.5 mg/kg/injection, schedule: Q01DX009 (ip), vehicle: water 168 % of control | [3] 247 % of control | [4] 187 % of control
inactive: [5] 98 % of control

From PubChem BioAssay AID256 (DTP/NCI, 2004)
